US4644010A, “Certain β-oxo-α-carbamoylpyrrolepropionitriles” (Ciba-Geigy Corporation, priority 1984, dated 1987)

How the values were obtained:
[1] = tested on: established adjuvant arthritis in the rat; assay: established adjuvant arthritis test; type: in vivo; conditions: dose ranging from about 5 to 25 mg/kg/p.o.
Procedure: The established adjuvant arthritis test for anti-arthritic activity is performed essentially as described in Proc. Soc. Biol. Med. 137, 506 (1971).

[2] = tested on: phenyl-p-benzoquinone-induced writhing in mice; assay: phenyl-p-benzoquinone-induced writhing test for analgesic activity; type: in vivo; conditions: mouse, dose ranging from about 1 to 30 mg/kg p.o.
Procedure: The phenyl-p-benzoquinone-induced writhing test for analgesic activity, described in J. Pharmacol. Exp. Therap. 125, 237 (1959) is performed in mice as follows:
Mice previously fasted overnight are treated orally with the test compound dissolved in 0.75% methylcellulose at doses of 1 to 50 mg/kg, or with the vehicle alone, 55 minutes before the induction of the writhing syndrome by i.p. injection of 0.25 ml of a suspension of phenyl-p-benzoquinone (0.03%) in tragacanth (0.4%).
Starting 5 minutes, thereafter, the number of writhing movements provoked by the irritant are counted over an observation period of 10 minutes. The analgesic antinociceptive) ED50 of the test compound is the dose which reduces the mean frequency of writhing movements by 50% in comparison to the controls.

[3] = tested on: BCG-immunized adjuvant arthritic rat; assay: skin test (delayed hypersensitivity) in the BCG-immunized adjuvant arthritic rat; type: in vivo; conditions: 25 mg/kg/p.o.
Procedure: The enhancement of cell-mediated immunity is determined in vivo in the BCG-immunized arthritic rat by measurement of delayed hypersensitivity reaction essentially as described in Current Therapeutic Research 30, S34 (1981).
Charles River male rats weighing 325-400 g are sensitized by intradermal injection into the right hind foot pad with […] per animal of Mycobacterium tuberculosis (Difco) emulsified in Freund's incomplete adjuvant. Animals are immunized with 0.1 ml of BCG vaccine intradermally on day 18 after adjuvant injection. Corn starch suspensions of drugs are administered orally. Control animals are dosed with cornstarch vehicle only. All animals are skin-tested with 10 μg PPD intradermally on day 29 to elicit skin reactions. The diameter of the erythema and induration reaction is measured 24 hours after antigen challenge. An increase in the diameter of the erythema is indicative of enhanced cellular immunity.

[4] = tested on: proteoglycan matrix of bovine nasal septum cartilage; assay: cartilage-synovium co-culture model of cartilage matrix degradation; type: cell-based; conditions: concentration range of about 10^-7 M to 10^-5 M
Procedure: The compounds of the invention are also active in the cartilage-synovium co-culture model of cartilage matrix degradation, indicative of their effectiveness in osteoarthritis. The screen is carried out as follows:
The proteoglycan matrix of bovine nasal septum cartilage is labeled into vitro by incorporation of ^35 S into glycosaminoglycan. Cartilage slices are incubated overnight in a sulfate-free medium containing ^35 S-sodium sulfate. ^35 S-Labeled cartilage slices are co-cultured with normal synovium explants in multiwell tissue culture plates. After 4 days incubation a 100 μl aliquot of medium is counted. Cartilage slices are hydrolyzed and a 100 μl aliquot of cartilage hydrolysate is counted. The percent ^35 S released into the medium is determined and the percent of inhibition of matrix degradation is calculated.

N#CC(C(=O)Nc1ccccc1)C(=O)c1ccc[nH]1 (stereo not drawn) [Example 1, β-oxo-α-(phenylcarbamoyl)-β-(2-pyrrolyl)-propionitrile]
activity in the established adjuvant arthritis test [1]: active | activity in the phenyl-p-benzoquinone test for analgesia [2]: active | activity in the skin test (immunopotentiating activity) [3]: significant activity | inhibition of cartilage matrix degradation in vitro [4]: inhibit cartilage matrix degradation

N#CC(C(=O)Nc1ccc(Cl)cc1)C(=O)c1ccc[nH]1 (stereo not drawn) [Example 2, β-oxo-α-(4-chlorophenylcarbamoyl)-β-(2-pyrrolyl)propionitrile]
activity in the established adjuvant arthritis test [1]: active | activity in the phenyl-p-benzoquinone test for analgesia [2]: active | activity in the skin test (immunopotentiating activity) [3]: significant activity | inhibition of cartilage matrix degradation in vitro [4]: inhibit cartilage matrix degradation

N#CC(C(=O)Nc1ccc(F)cc1F)C(=O)c1ccc[nH]1 (stereo not drawn) [Example 3, β-oxo-α-(2,4-difluorophenylcarbamoyl)-β-(2-pyrrolyl)-propionitrile]
activity in the established adjuvant arthritis test [1]: active | activity in the phenyl-p-benzoquinone test for analgesia [2]: active | inhibition of cartilage matrix degradation in vitro [4]: inhibit cartilage matrix degradation

N#CC(C(=O)Nc1ccc(F)cc1)C(=O)c1ccc[nH]1 (stereo not drawn) [Example 5, β-oxo-α-(4-fluorohenylcarbamoyl)-β-(2-pyrrolyl)-propionitrile]
activity in the established adjuvant arthritis test [1]: active | activity in the phenyl-p-benzoquinone test for analgesia [2]: active
